Data taken from patent US6358885B1, “Substituted phenylheterocyclic herbicides” (Mississippi State University, priority 1992, dated 2002).

Columns and labels:
Assay in all cases: Test G preemergence/postemergence greenhouse plant response rating 0 to 100
alfalfa = type: in vivo, Medicago ativa; conditions: 0 to 100 scale
Summary of the method: (§1)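 Greenhouse pots, one species each; non-phytotoxic solvent vehicle. Read-out: visual injury vs untreated, 13–21 DAT. Dash denotes no result.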

annual bluegrass = type: in vivo, Poa annua; conditions: 0 to 100 scale
Summary of the method: as §1

bermudagrass = type: in vivo, Cynodon dactylon; conditions: 0 to 100 scale
Summary of the method: as §1

broadleaf signalgrass = type: in vivo, Brachiaria plantaginea; conditions: 0 to 100 scale
Summary of the method: as §1

common purslane = type: in vivo, Portulaca oleracea; conditions: 0 to 100 scale
Summary of the method: as §1

common ragweed = type: in vivo, Ambrosia elatior; conditions: 0 to 100 scale
Summary of the method: as §1

dallisgrass = type: in vivo, Paspalum dilatatum; conditions: 0 to 100 scale
Summary of the method: as §1

goosegrass = type: in vivo, Eleusine indica; conditions: 0 to 100 scale
Summary of the method: as §1

guineagrass = type: in vivo, Panicum maximum; conditions: 0 to 100 scale
Summary of the method: as §1

itchgrass = type: in vivo, Rottboellia exaltata; conditions: 0 to 100 scale
Summary of the method: as §1

johnsongrass = type: in vivo, Sorghum halepense; conditions: 0 to 100 scale
Summary of the method: as §1

large crabgrass = type: in vivo, Digitaria sanguinalis; conditions: 0 to 100 scale
Summary of the method: as §1

pitted morningglory = type: in vivo, Ipomoea lacunosa; conditions: 0 to 100 scale
Summary of the method: as §1

purple nutsedge = type: in vivo, Cyperus rotundus; conditions: Rate 125 g/ha, 0 to 100 scale
Summary of the method: as §1

sandbur = type: in vivo, Cenchrus echinatus; conditions: 0 to 100 scale
Summary of the method: as §1

smooth crabgrass = type: in vivo, Digitaria ischaemum; conditions: 0 to 100 scale
Summary of the method: as §1

C=CCN1C(=O)COc2cc(F)c(-c3nn4c(c3Cl)CCCC4)cc21 [Compound 33]
Plant response rating, Alfalfa Var. (alfalfa; POSTEMERGENCE, Rate 125 g/ha): 0
Plant response rating, Alfalfa Var. (alfalfa; POSTEMERGENCE, Rate 250 g/ha): 0
Plant response rating, Alfalfa Var. (alfalfa; PREEMERGENCE, Rate 125 g/ha): 0
Plant response rating, Alfalfa Var. (alfalfa; PREEMERGENCE, Rate 250 g/ha): 0
Plant response rating, Ann Bluegrass (annual bluegrass; POSTEMERGENCE, Rate 125 g/ha): 0
Plant response rating, Ann Bluegrass (annual bluegrass; POSTEMERGENCE, Rate 250 g/ha): 0
Plant response rating, Ann Bluegrass (annual bluegrass; PREEMERGENCE, Rate 125 g/ha): 0
Plant response rating, Ann Bluegrass (annual bluegrass; PREEMERGENCE, Rate 250 g/ha): 0
Plant response rating, Bermudagrass (bermudagrass; POSTEMERGENCE, Rate 125 g/ha): 0
Plant response rating, Bermudagrass (bermudagrass; POSTEMERGENCE, Rate 250 g/ha): 0
Plant response rating, Bermudagrass (bermudagrass; PREEMERGENCE, Rate 125 g/ha): 0
Plant response rating, Bermudagrass (bermudagrass; PREEMERGENCE, Rate 250 g/ha): 0
Plant response rating, Brdlf Sgnlgrass (broadleaf signalgrass; POSTEMERGENCE, Rate 125 g/ha): 0
Plant response rating, Brdlf Sgnlgrass (broadleaf signalgrass; POSTEMERGENCE, Rate 250 g/ha): 0
Plant response rating, Brdlf Sgnlgrass (broadleaf signalgrass; PREEMERGENCE, Rate 125 g/ha): 0
Plant response rating, Brdlf Sgnlgrass (broadleaf signalgrass; PREEMERGENCE, Rate 250 g/ha): 0
Plant response rating, Cmn Purslane (common purslane; POSTEMERGENCE, Rate 125 g/ha): 100
Plant response rating, Cmn Purslane (common purslane; POSTEMERGENCE, Rate 250 g/ha): 80
Plant response rating, Cmn Purslane (common purslane; PREEMERGENCE, Rate 125 g/ha): 0
Plant response rating, Cmn Purslane (common purslane; PREEMERGENCE, Rate 250 g/ha): 40
Plant response rating, Cmn Ragweed (common ragweed; POSTEMERGENCE, Rate 125 g/ha): 80
Plant response rating, Cmn Ragweed (common ragweed; POSTEMERGENCE, Rate 250 g/ha): 50
Plant response rating, Cmn Ragweed (common ragweed; PREEMERGENCE, Rate 125 g/ha): 0
Plant response rating, Cmn Ragweed (common ragweed; PREEMERGENCE, Rate 250 g/ha): 0
Plant response rating, Dallisgrass (dallisgrass; POSTEMERGENCE, Rate 125 g/ha): 0
Plant response rating, Dallisgrass (dallisgrass; POSTEMERGENCE, Rate 250 g/ha): 0
Plant response rating, Dallisgrass (dallisgrass; PREEMERGENCE, Rate 125 g/ha): 0
Plant response rating, Dallisgrass (dallisgrass; PREEMERGENCE, Rate 250 g/ha): 0
Plant response rating, Goosegrass (goosegrass; POSTEMERGENCE, Rate 125 g/ha): 0
Plant response rating, Goosegrass (goosegrass; POSTEMERGENCE, Rate 250 g/ha): 0
Plant response rating, Goosegrass (goosegrass; PREEMERGENCE, Rate 125 g/ha): 0
Plant response rating, Goosegrass (goosegrass; PREEMERGENCE, Rate 250 g/ha): 0
Plant response rating, Guineagrass (guineagrass; POSTEMERGENCE, Rate 125 g/ha): 0
Plant response rating, Guineagrass (guineagrass; POSTEMERGENCE, Rate 250 g/ha): 0
Plant response rating, Guineagrass (guineagrass; PREEMERGENCE, Rate 125 g/ha): 0
Plant response rating, Guineagrass (guineagrass; PREEMERGENCE, Rate 250 g/ha): 0
Plant response rating, Itchgrass (itchgrass; POSTEMERGENCE, Rate 125 g/ha): 0
Plant response rating, Itchgrass (itchgrass; POSTEMERGENCE, Rate 250 g/ha): 0
Plant response rating, Itchgrass (itchgrass; PREEMERGENCE, Rate 125 g/ha): 0
Plant response rating, Itchgrass (itchgrass; PREEMERGENCE, Rate 250 g/ha): 0
Plant response rating, Johnsongrass (johnsongrass; POSTEMERGENCE, Rate 125 g/ha): 0
Plant response rating, Johnsongrass (johnsongrass; POSTEMERGENCE, Rate 250 g/ha): 0
Plant response rating, Johnsongrass (johnsongrass; PREEMERGENCE, Rate 125 g/ha): 0
Plant response rating, Johnsongrass (johnsongrass; PREEMERGENCE, Rate 250 g/ha): 0
Plant response rating, Large Crabgrass (large crabgrass; POSTEMERGENCE, Rate 125 g/ha): 0
Plant response rating, Large Crabgrass (large crabgrass; POSTEMERGENCE, Rate 250 g/ha): 0
Plant response rating, Large Crabgrass (large crabgrass; PREEMERGENCE, Rate 125 g/ha): 0
Plant response rating, Large Crabgrass (large crabgrass; PREEMERGENCE, Rate 250 g/ha): 0
Plant response rating, Pit Morninglory (pitted morningglory; POSTEMERGENCE, Rate 125 g/ha): 30
Plant response rating, Pit Morninglory (pitted morningglory; POSTEMERGENCE, Rate 250 g/ha): 100
Plant response rating, Pit Morninglory (pitted morningglory; PREEMERGENCE, Rate 125 g/ha): 0
Plant response rating, Pit Morninglory (pitted morningglory; PREEMERGENCE, Rate 250 g/ha): 0
Plant response rating, Purple Nutsedge (purple nutsedge; POSTEMERGENCE): 10
Plant response rating, Purple Nutsedge (purple nutsedge; PREEMERGENCE): 0
Plant response rating, S. Sandbur (sandbur; POSTEMERGENCE, Rate 125 g/ha): 0
Plant response rating, S. Sandbur (sandbur; POSTEMERGENCE, Rate 250 g/ha): 0
Plant response rating, S. Sandbur (sandbur; PREEMERGENCE, Rate 125 g/ha): 0
Plant response rating, S. Sandbur (sandbur; PREEMERGENCE, Rate 250 g/ha): 0
Plant response rating, Smooth Crabgras (smooth crabgrass; POSTEMERGENCE, Rate 125 g/ha): 0
Plant response rating, Smooth Crabgras (smooth crabgrass; POSTEMERGENCE, Rate 250 g/ha): 0
Plant response rating, Smooth Crabgras (smooth crabgrass; PREEMERGENCE, Rate 125 g/ha): 0
Plant response rating, Smooth Crabgras (smooth crabgrass; PREEMERGENCE, Rate 250 g/ha): 0

C#CCN1C(=O)COc2cc(F)c(-c3nn4c(c3Cl)CCCC4)cc21 [Compound 34]
Plant response rating, Alfalfa Var. (alfalfa; POSTEMERGENCE, Rate 125 g/ha): 40
Plant response rating, Alfalfa Var. (alfalfa; POSTEMERGENCE, Rate 250 g/ha): 60
Plant response rating, Alfalfa Var. (alfalfa; PREEMERGENCE, Rate 125 g/ha): 0
Plant response rating, Alfalfa Var. (alfalfa; PREEMERGENCE, Rate 250 g/ha): 100
Plant response rating, Ann Bluegrass (annual bluegrass; POSTEMERGENCE, Rate 125 g/ha): 0
Plant response rating, Ann Bluegrass (annual bluegrass; POSTEMERGENCE, Rate 250 g/ha): 0
Plant response rating, Ann Bluegrass (annual bluegrass; PREEMERGENCE, Rate 125 g/ha): 0
Plant response rating, Ann Bluegrass (annual bluegrass; PREEMERGENCE, Rate 250 g/ha): 50
Plant response rating, Bermudagrass (bermudagrass; POSTEMERGENCE, Rate 125 g/ha): 0
Plant response rating, Bermudagrass (bermudagrass; POSTEMERGENCE, Rate 250 g/ha): 0
Plant response rating, Bermudagrass (bermudagrass; PREEMERGENCE, Rate 125 g/ha): 0
Plant response rating, Bermudagrass (bermudagrass; PREEMERGENCE, Rate 250 g/ha): 0
Plant response rating, Brdlf Sgnlgrass (broadleaf signalgrass; POSTEMERGENCE, Rate 125 g/ha): 0
Plant response rating, Brdlf Sgnlgrass (broadleaf signalgrass; POSTEMERGENCE, Rate 250 g/ha): 0
Plant response rating, Brdlf Sgnlgrass (broadleaf signalgrass; PREEMERGENCE, Rate 125 g/ha): 0
Plant response rating, Brdlf Sgnlgrass (broadleaf signalgrass; PREEMERGENCE, Rate 250 g/ha): 0
Plant response rating, Cmn Purslane (common purslane; POSTEMERGENCE, Rate 125 g/ha): 100
Plant response rating, Cmn Purslane (common purslane; POSTEMERGENCE, Rate 250 g/ha): 100
Plant response rating, Cmn Purslane (common purslane; PREEMERGENCE, Rate 125 g/ha): 0
Plant response rating, Cmn Purslane (common purslane; PREEMERGENCE, Rate 250 g/ha): 100
Plant response rating, Cmn Ragweed (common ragweed; POSTEMERGENCE, Rate 125 g/ha): 70
Plant response rating, Cmn Ragweed (common ragweed; POSTEMERGENCE, Rate 250 g/ha): 100
Plant response rating, Cmn Ragweed (common ragweed; PREEMERGENCE, Rate 125 g/ha): 0
Plant response rating, Cmn Ragweed (common ragweed; PREEMERGENCE, Rate 250 g/ha): 0
Plant response rating, Dallisgrass (dallisgrass; POSTEMERGENCE, Rate 125 g/ha): 0
Plant response rating, Dallisgrass (dallisgrass; POSTEMERGENCE, Rate 250 g/ha): 0
Plant response rating, Dallisgrass (dallisgrass; PREEMERGENCE, Rate 125 g/ha): 0
Plant response rating, Dallisgrass (dallisgrass; PREEMERGENCE, Rate 250 g/ha): 80
Plant response rating, Goosegrass (goosegrass; POSTEMERGENCE, Rate 125 g/ha): 0
Plant response rating, Goosegrass (goosegrass; POSTEMERGENCE, Rate 250 g/ha): 0
Plant response rating, Goosegrass (goosegrass; PREEMERGENCE, Rate 125 g/ha): 0
Plant response rating, Goosegrass (goosegrass; PREEMERGENCE, Rate 250 g/ha): 30
Plant response rating, Guineagrass (guineagrass; POSTEMERGENCE, Rate 125 g/ha): 0
Plant response rating, Guineagrass (guineagrass; POSTEMERGENCE, Rate 250 g/ha): 0
Plant response rating, Guineagrass (guineagrass; PREEMERGENCE, Rate 125 g/ha): 0
Plant response rating, Guineagrass (guineagrass; PREEMERGENCE, Rate 250 g/ha): 0
Plant response rating, Itchgrass (itchgrass; POSTEMERGENCE, Rate 125 g/ha): 0
Plant response rating, Itchgrass (itchgrass; POSTEMERGENCE, Rate 250 g/ha): 0
Plant response rating, Itchgrass (itchgrass; PREEMERGENCE, Rate 125 g/ha): 0
Plant response rating, Itchgrass (itchgrass; PREEMERGENCE, Rate 250 g/ha): 20
Plant response rating, Johnsongrass (johnsongrass; POSTEMERGENCE, Rate 125 g/ha): 0
Plant response rating, Johnsongrass (johnsongrass; POSTEMERGENCE, Rate 250 g/ha): 0
Plant response rating, Johnsongrass (johnsongrass; PREEMERGENCE, Rate 125 g/ha): 0
Plant response rating, Johnsongrass (johnsongrass; PREEMERGENCE, Rate 250 g/ha): 0
Plant response rating, Large Crabgrass (large crabgrass; POSTEMERGENCE, Rate 125 g/ha): 0
Plant response rating, Large Crabgrass (large crabgrass; POSTEMERGENCE, Rate 250 g/ha): 0
Plant response rating, Large Crabgrass (large crabgrass; PREEMERGENCE, Rate 125 g/ha): 0
Plant response rating, Large Crabgrass (large crabgrass; PREEMERGENCE, Rate 250 g/ha): 60
Plant response rating, Pit Morninglory (pitted morningglory; POSTEMERGENCE, Rate 125 g/ha): 30
Plant response rating, Pit Morninglory (pitted morningglory; POSTEMERGENCE, Rate 250 g/ha): 50
Plant response rating, Pit Morninglory (pitted morningglory; PREEMERGENCE, Rate 125 g/ha): 0
Plant response rating, Pit Morninglory (pitted morningglory; PREEMERGENCE, Rate 250 g/ha): 30
Plant response rating, Purple Nutsedge (purple nutsedge; POSTEMERGENCE): 20
Plant response rating, Purple Nutsedge (purple nutsedge; PREEMERGENCE): 0
Plant response rating, S. Sandbur (sandbur; POSTEMERGENCE, Rate 125 g/ha): 0
Plant response rating, S. Sandbur (sandbur; POSTEMERGENCE, Rate 250 g/ha): 0
Plant response rating, S. Sandbur (sandbur; PREEMERGENCE, Rate 125 g/ha): 0
Plant response rating, S. Sandbur (sandbur; PREEMERGENCE, Rate 250 g/ha): 0
Plant response rating, Smooth Crabgras (smooth crabgrass; POSTEMERGENCE, Rate 125 g/ha): 0
Plant response rating, Smooth Crabgras (smooth crabgrass; POSTEMERGENCE, Rate 250 g/ha): 0
Plant response rating, Smooth Crabgras (smooth crabgrass; PREEMERGENCE, Rate 125 g/ha): 0
Plant response rating, Smooth Crabgras (smooth crabgrass; PREEMERGENCE, Rate 250 g/ha): 80
